The structures appear in SMILES notation. Numbers after ± are expanded uncertainties.

The data set can be described thus: molar heat capacity at saturation pressure. The conditions noted are these: Liquid, Large sample (1 g) DSC.

On to `Cc1cccc(C)c1` [1,3-dimethylbenzene], for which the molar heat capacity (332.2 K) is 193.6 ± 3.9 J/K/mol; the molar heat capacity (342.1 K) is given as 197.6 ± 4 J/K/mol; the molar heat capacity (354.9 K) came to 201.7 ± 4 J/K/mol; the molar heat capacity (361.8 K) came to 205.7 ± 4.1 J/K/mol; the molar heat capacity (371.6 K) was 209.4 ± 4.2 J/K/mol; the molar heat capacity (381.5 K) stood at 213.6 ± 4.3 J/K/mol. In addition, the molar heat capacity (391.4 K) came out at 217.4 ± 4.3 J/K/mol and the molar heat capacity (401.3 K) came to 221.7 ± 4.4 J/K/mol.
In the case of `CC(C)(C)c1ccccc1` [(1,1-dimethylethyl)benzene], the molar heat capacity turned out to be 259 ± 5.2 J/K/mol (332.2 K); 263.1 ± 5.3 J/K/mol (342.1 K); 268.3 ± 5.4 J/K/mol (354.9 K); 272.7 ± 5.5 J/K/mol (361.8 K); 278.4 ± 5.6 J/K/mol (371.6 K); 283 ± 5.7 J/K/mol (381.5 K). In addition, the molar heat capacity was found to be 288.8 ± 5.8 J/K/mol (391.4 K) and 293.5 ± 5.9 J/K/mol (401.3 K).
For the molecule `CCC(C)c1ccccc1` (stereo unspecified) [(1-methylpropyl)benzene], the molar heat capacity is, setting by setting: (332.2 K) 258.5 ± 5.2 J/K/mol; (342.1 K) 262.6 ± 5.3 J/K/mol; (354.9 K) 267.9 ± 5.4 J/K/mol; (361.8 K) 272.5 ± 5.5 J/K/mol; (371.6 K) 277.5 ± 5.6 J/K/mol; (381.5 K) 282.4 ± 5.6 J/K/mol. The molar heat capacity is recorded as 287.3 ± 5.7 J/K/mol (391.4 K) and 292.1 ± 5.8 J/K/mol (401.3 K).
As for `CC(C)Cc1ccccc1` [(2-methylpropyl)benzene], the molar heat capacity (332.2 K) is 259.1 ± 5.2 J/K/mol; the molar heat capacity (342.1 K) was determined as 263.5 ± 5.3 J/K/mol; the molar heat capacity (354.9 K) was found to be 268.8 ± 5.4 J/K/mol; the molar heat capacity (361.8 K) was 273.9 ± 5.5 J/K/mol; the molar heat capacity (371.6 K) stood at 278.6 ± 5.6 J/K/mol; the molar heat capacity (381.5 K) is reported as 283 ± 5.7 J/K/mol. Further, the molar heat capacity is, setting by setting: (391.4 K) 289.1 ± 5.8 J/K/mol; (401.3 K) 293.8 ± 5.9 J/K/mol.
On to `CCCCc1ccccc1` [butylbenzene], for which the molar heat capacity is, setting by setting: (332.2 K) 259.1 ± 5.2 J/K/mol; (342.1 K) 263 ± 5.3 J/K/mol; (354.9 K) 267.8 ± 5.4 J/K/mol; (361.8 K) 272.9 ± 5.5 J/K/mol; (371.6 K) 277.6 ± 5.6 J/K/mol; (381.5 K) 283.9 ± 5.7 J/K/mol. The molar heat capacity (391.4 K) was 288 ± 5.8 J/K/mol and the molar heat capacity (401.3 K) stood at 293.9 ± 5.9 J/K/mol.
As to `CCc1ccccc1` [ethylbenzene], the molar heat capacity was 198.7 ± 4 J/K/mol (332.2 K); 202.4 ± 4 J/K/mol (342.1 K); 205.9 ± 4.1 J/K/mol (354.9 K); 210.2 ± 4.2 J/K/mol (361.8 K); 213.6 ± 4.3 J/K/mol (371.6 K); 218 ± 4.4 J/K/mol (381.5 K). Also, the molar heat capacity (391.4 K) stood at 221.7 ± 4.4 J/K/mol.
With `CCCCCCCc1ccccc1` [heptylbenzene], the molar heat capacity is, setting by setting: (332.2 K) 353.6 ± 7.1 J/K/mol; (342.1 K) 359.6 ± 7.2 J/K/mol; (354.9 K) 364.9 ± 7.3 J/K/mol; (361.8 K) 371.5 ± 7.4 J/K/mol; (371.6 K) 377.2 ± 7.5 J/K/mol; (381.5 K) 384.3 ± 7.7 J/K/mol. Moreover, the molar heat capacity is reported as 389.9 ± 7.8 J/K/mol (391.4 K) and 396.5 ± 7.9 J/K/mol (401.3 K).
For the molecule `CCCCCCCCCCCCCCCCc1ccccc1` [hexadecylbenzene], the molar heat capacity is listed as 640 ± 13 J/K/mol (332.2 K); 651.3 ± 13 J/K/mol (342.1 K); 662 ± 13 J/K/mol (354.9 K); 671.9 ± 13 J/K/mol (361.8 K); 683.3 ± 14 J/K/mol (371.6 K); 695.3 ± 14 J/K/mol (381.5 K). Besides, the molar heat capacity by setting is: (391.4 K) 710 ± 14 J/K/mol; (401.3 K) 721.1 ± 14 J/K/mol.
Turning to `CCCCCCc1ccccc1` [hexylbenzene], the molar heat capacity reads like this: (332.2 K) 323.1 ± 6.5 J/K/mol; (342.1 K) 328.8 ± 6.6 J/K/mol; (354.9 K) 334.1 ± 6.7 J/K/mol; (361.8 K) 340.1 ± 6.8 J/K/mol; (371.6 K) 347.9 ± 7 J/K/mol; (381.5 K) 353.8 ± 7.1 J/K/mol. For the same molecule, the molar heat capacity runs as follows: (391.4 K) 359.1 ± 7.2 J/K/mol; (401.3 K) 366.1 ± 7.3 J/K/mol.
With `CC(C)c1ccccc1` [isopropylbenzene], the molar heat capacity runs as follows: (332.2 K) 229.1 ± 4.6 J/K/mol; (342.1 K) 234.2 ± 4.7 J/K/mol; (354.9 K) 238.5 ± 4.8 J/K/mol; (361.8 K) 242.5 ± 4.9 J/K/mol; (371.6 K) 246.7 ± 4.9 J/K/mol; (381.5 K) 251.1 ± 5 J/K/mol. Besides, the molar heat capacity runs as follows: (391.4 K) 255.2 ± 5.1 J/K/mol; (401.3 K) 259.5 ± 5.2 J/K/mol.
Consider `CCCc1ccccc1` [propylbenzene], for which the molar heat capacity reads like this: (332.2 K) 227.4 ± 4.5 J/K/mol; (342.1 K) 231.4 ± 4.6 J/K/mol; (354.9 K) 235.8 ± 4.7 J/K/mol; (361.8 K) 240.1 ± 4.8 J/K/mol; (371.6 K) 244.6 ± 4.9 J/K/mol; (381.5 K) 249.3 ± 5 J/K/mol. For the same molecule, for the setting “391.4 K”, the molar heat capacity is on record as 252 ± 5 J/K/mol.

(Values after the NIST ThermoML archive (doi:10.1021/je050273f).)
